Experimental data reported in patent US20240238425A1, “HSD17B13 Inhibitors and/or Degraders” (Pfizer Inc., priority 2022, published 2024).
Where a name gives a salt, the structure may show the parent alone.

System: HiBiT-HSD17β13 fusion protein (N-terminal HiBiT-tagged HSD17β13 isoform D) in Huh7 HiBiT-HSD17β13 OE cells
Test: Whole-cell Huh7-HSD17B13 HiBiT assay (degrader potency and maximal efficacy, luminescence readout)
Type: cell-based, human
Conditions: 24 hour incubation, geometric mean, * = geometric mean for all forms tested (parent and salt forms); for DC50: read-out: Huh7_HIBIT-HSD17β13_DC50 GMean DC50; for Huh7_HIBIT-HSD17β13_DC50 GMean Asymptote Maximum: max. concentration 1 μM
Summary of the method: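 Huh7 cells stably overexpressing N-terminal HiBiT-tagged HSD17β13 isoform D, clone matched to primary hepatocyte expression, were exposed to an 11-point, 1 in 3.162 dilution series (top 1 μM final) for 24 h at 37° C. Lytic HiBiT luminescence was normalised to DMSO and parental-cell controls; DC50 from four-parameter logistic fit, with CellTiter-Glo counter screen.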

| DC50 [nM] | SMILES | Huh7_HIBIT-HSD17β13_DC50 GMean Asymptote Maximum |
| --- | --- | --- |
| 1.6 | Cc1ccc(C(=O)N2CCC3(CC2)CC(N2CCN(c4cnc(-c5ccc6cn([C@H]7CC[C@H](CNC(=O)c8cc(F)c(O)c(F)c8F)CC7)nc6c5)cn4)CC2)C3)cc1N1CCC(=O)NC1=O [Example 72, N-{[(1r,4r)-4-{6-[5-(4-{7-[3-(2,4-dioxo-1,3-diazinan-1-yl)-4-methylbenzoyl]-7-azaspiro[3.5]nonan-2-yl}piperazin-1-yl)pyrazin-2-yl]-2H-indazol-2-yl}cyclohexyl]methyl}-2,3,5-trifluoro-4-hydroxybenzamide, trifluoroacetate salt] | 78% |
| 0.96 | Cc1ccc(C(=O)N2CCC3(CC2)C[C@H](N2CCN(c4ncc(-c5ccc6cn([C@H]7CC[C@H](CNC(=O)c8cc(F)c(O)c(F)c8F)CC7)nc6c5)cn4)CC2)CO3)cc1N1CCC(=O)NC1=O [Example 73, N-{[(1r,4r)-4-{6-[2-(4-{(3S)-8-[3-(2,4-dioxo-1,3-diazinan-1-yl)-4-methylbenzoyl]-1-oxa-8-azaspiro[4.5]decan-3-yl}piperazin-1-yl)pyrimidin-5-yl]-2H-indazol-2-yl}cyclohexyl]methyl}-2,3,5-trifluoro-4-hydroxybenzamide, trifluoroacetate salt] | 76% |
| 2 | Cc1ccc(C(=O)N2CCC3(CC2)CC(N2CCN(c4ccc5cn([C@H]6CC[C@H](CNC(=O)c7cc(F)c(O)c(F)c7F)CC6)nc5c4)CC2)C3)cc1N1CCC(=O)NC1=O [Example 82, N-({(1r,4r)-4-[6-(4-{7-[3-(2,4-dioxo-1,3-diazinan-1-yl)-4-methylbenzoyl]-7-azaspiro[3.5]nonan-2-yl}piperazin-1-yl)-2H-indazol-2-yl]cyclohexyl}methyl)-2,3,5-trifluoro-4-hydroxybenzamide, trifluoroacetate salt] | 74% |
| 3 | O=C1CCN(c2cc(C(=O)N3CCC(CN4CCN(c5ncc(-c6ccc7cn([C@H]8CC[C@H](CNC(=O)c9cc(F)c(O)c(F)c9F)CC8)nc7c6)cn5)CC4)CC3)ccc2Cl)C(=O)N1 [Example 89, N-{[(1r,4r)-4-(6-{2-[4-({1-[4-chloro-3-(2,4-dioxo-1,3-diazinan-1-yl)benzoyl]piperidin-4-yl}methyl)piperazin-1-yl]pyrimidin-5-yl}-2H-indazol-2-yl)cyclohexyl]methyl}-2,3,5-trifluoro-4-hydroxybenzamide, formate salt] | 77% |
| 6.1 | Cc1ccc(C(=O)N2CCN(C3CCN(c4ncc(-c5ccc6cn([C@H]7CC[C@H](CNC(=O)c8cc(F)c(O)c(F)c8F)CC7)nc6c5)cn4)CC3)CC2)cc1N1CCC(=O)NC1=O [Example 90, N-{[(1r,4r)-4-{6-[2-(4-{4-[3-(2,4-dioxo-1,3-diazinan-1-yl)-4-methylbenzoyl]piperazin-1-yl}piperidin-1-yl)pyrimidin-5-yl]-2H-indazol-2-yl}cyclohexyl]methyl}-2,3,5-trifluoro-4-hydroxybenzamide] | 60* % |
| 3.2 | Cc1ccc(C(=O)N2CCN(CCOc3ncc(-c4ccc5cn(C67CCC(CNC(=O)c8cc(F)c(O)c(F)c8F)(CC6)CC7)nc5c4)cn3)CC2)cc1N1CCC(=O)NC1=O [Example 91, N-[(4-{6-[2-(2-{4-[3-(2,4-dioxo-1,3-diazinan-1-yl)-4-methylbenzoyl]piperazin-1-yl}ethoxy)pyrimidin-5-yl]-2H-indazol-2-yl}bicyclo[2.2.2]octan-1-yl)methyl]-2,3,5-trifluoro-4-hydroxybenzamide] | 73% |
| 2.7 | Cc1ccc(C(=O)N2CCC3(CCC(c4nc(-c5ccc6cn([C@H]7CC[C@H](CNC(=O)c8cc(F)c(O)c(F)c8F)CC7)nc6c5)no4)CC3)CC2)cc1N1CCC(=O)NC1=O [Example 96, N-({(1r,4r)-4-[6-(5-{3-[3-(2,4-dioxo-1,3-diazinan-1-yl)-4-methylbenzoyl]-3-azaspiro[5.5]undecan-9-yl}-1,2,4-oxadiazol-3-yl)-2H-indazol-2-yl]cyclohexyl}methyl)-2,3,5-trifluoro-4-hydroxybenzamide] | 81% |
| 2.4 | O=C1CCN(c2cnn3cc(CCCN4CCN(c5ccc6cn([C@]78CC[C@](CNC(=O)c9cc(F)c(O)c(F)c9F)(CC7)CC8)nc6c5)CC4)ccc23)C(=O)N1 [Example 97, N-({4-[6-(4-{3-[3-(2,4-dioxo-1,3-diazinan-1-yl)pyrazolo[1,5-a]pyridin-6-yl]propyl}piperazin-1-yl)-2H-indazol-2-yl]bicyclo[2.2.2]octan-1-yl}methyl)-2,3,5-trifluoro-4-hydroxybenzamide, trifluoroacetate salt] | 76% |
| 1.7 | O=C1CCN(c2cnn3cc(CCCN4CCN(c5ncc(-c6ccn7cc([C@]89CC[C@](CNC(=O)c%10cc(F)c(O)c(F)c%10F)(CC8)CC9)nc7c6)cn5)CC4)ccc23)C(=O)N1 [Example 99, N-[(4-{7-[2-(4-{3-[3-(2,4-dioxo-1,3-diazinan-1-yl)pyrazolo[1,5-a]pyridin-6-yl]propyl}piperazin-1-yl)pyrimidin-5-yl]imidazo[1,2-a]pyridin-2-yl}bicyclo[2.2.2]octan-1-yl)methyl]-2,3,5-trifluoro-4-hydroxybenzamide, formate salt] | 70% |
| 1.2 | Cc1ccc(C(=O)N2CCC3(CCC(CN4CCN(c5ccc6cn([C@H]7CC[C@H](CNC(=O)c8cc(F)c(O)c(F)c8F)CC7)nc6c5)CC4)CC3)CC2)cc1N1CCC(=O)NC1=O [Example 103, N-{[(1r,4r)-4-{6-[4-({3-[3-(2,4-dioxo-1,3-diazinan-1-yl)-4-methylbenzoyl]-3-azaspiro[5.5]undecan-9-yl}methyl)piperazin-1-yl]-2H-indazol-2-yl}cyclohexyl]methyl}-2,3,5-trifluoro-4-hydroxybenzamide, trifluoroacetate salt] | 76% |
| 3.6 | Cc1ccc(C(=O)N2CCC3(CCC(N4CCN(c5ccc6cn([C@H]7CC[C@H](CNC(=O)c8cc(F)c(O)c(F)c8F)CC7)nc6c5)CC4)CC3)C2)cc1N1CCC(=O)NC1=O (stereo partly drawn) [Example 104, N-({(1r,4r)-4-[6-(4-{2-[3-(2,4-dioxo-1,3-diazinan-1-yl)-4-methylbenzoyl]-2-azaspiro[4.5]decan-8-yl}piperazin-1-yl)-2H-indazol-2-yl]cyclohexyl}methyl)-2,3,5-trifluoro-4-hydroxybenzamide, trifluoroacetate salt] | 78% |

| SMILES | DC50 [nM] | Huh7_HIBIT-HSD17β13_DC50 GMean Asymptote Maximum |
| --- | --- | --- |
| O=C(O)C(F)(F)F.O=C1CCN(c2cnn3cc(CCCN4CCN(c5ncc(-c6ccc7cn(C89CCC(CNC(=O)c%10cc(F)c(O)c(F)c%10F)(CC8)CC9)nc7c6)cn5)CC4)ccc23)C(=O)N1 [Example 105, N-[(4-{6-[2-(4-{3-[3-(2,4-dioxo-1,3-diazinan-1-yl)pyrazolo[1,5-a]pyridin-6-yl]propyl}piperazin-1-yl)pyrimidin-5-yl]-2H-indazol-2-yl}bicyclo[2.2.2]octan-1-yl)methyl]-2,3,5-trifluoro-4-hydroxybenzamide, trifluoroacetate salt] | 1.3 | 76% |
